This note sets out measurements from patent US20230322813A1, “COMPOUNDS AND METHODS FOR TREATMENT OF VIRAL INFECTIONS” (Gilead Sciences, Inc., priority 2022, published 2023).

Read-outs that look alike come from different tables or passages of the source. Bounds are passed on as bounds.

Details of series [1]: species or system Sprague-Dawley rats. The conditions noted are these: male, Sprague-Dawley, rat, in vivo, po; for Cmax / Reference Compound A AUCinf.: 8.1 mg/kg; for Reference Compound A F %: 1 mg/kg.
Protocol: Ester Reference Compound, Compound 3 and Compound 6 were dosed orally by gavage to male Sprague-Dawley rats (n=3/group); Ester Reference Compound at 6 mg/kg in 2.5% Dimethyl sulfoxide; 10% Kolliphor HS-15; 10% Labrasol; 2.5% Propylene glycol and 75% water, pH 2.5; Compound 3 at 6.65 mg/kg in 10% Dimethyl sulfoxide; 40% Kolliphor HS-15; 40% Labrasol and 10% Propylene glycol and Compound 6 at 8.1 mg/kg in 2.5% Dimethyl sulfoxide; 10% Kolliphor HS-15; 10% Labrasol; 2.5% Propylene glycol and 75% water, pH 2.8. Blood samples were collected into pre-chilled collection tubes containing K2EDTA and processed to plasma at 10 time points over a span of pre-dose to 24 h post-administration. Plasma samples were subject to protein precipitation with a 12.5-fold volume of methanol, vortexed and centrifuged. Supernatants were transferred and evaporated to dryness under nitrogen and reconstituted with 5% acetonitrile in water. Separation was achieved on a Phenomenex Synergi Polar-RP column, a mobile phase A of 10 mM ammonium formate with 0.1% formic acid in water and a mobile phase B of 0.1% formic acid in acetonitrile with a step-wise linear gradient from 5 to 95% mobile phase B. An LC-MS/MS method was used to measure the concentrations of the Reference Compound A and either Ester Reference Compound, Compound 3 or Compound 6 in plasma.
The subject of series [2] is Respiratory syncytial virus recombinant with luciferase (RSV-Luc5). Nature of the series: microbe, parasite or virus in culture. The class given is cell-based. The conditions noted are these: human respiratory syncytial virus, HEp-2, 72 h, read-out: RSV Hep2 EC50.
Series [3] deals with SARS Coronavirus 2 recombinant with NanoLuc (SARS-CoV2-NLuc). Nature of the series: organism not typed. Format: cell-based. The conditions noted are these: 48 h.
Series [4] is described as follows: in vitro. The following applies: human. The class given is cell-based. The procedure: Cytotoxicity of the compounds was determined in uninfected cells using the cell viability reagent in a similar fashion as described before for other cell types (Cihlar et al., Antimicrob Agents Chemother. 2008, 52(2):655-65). HEp-2 (1.5×10^3 cells/well) and MT-4 (2×10^3 cells/well) cells were plated in 384-well plates and incubated with the appropriate medium containing 3-fold serially diluted compound ranging from 15 nM to 100,000 nM. Cells were cultured for 4-5 days at 37° C. Following the incubation, the cells were allowed to equilibrate to 25° C., and cell viability was determined by adding Cell-Titer Glo viability reagent. The mixture was incubated for 10 min, and the luminescence signal was quantified using an Envision plate reader. Untreated cell and cells treated at 2 μM puromycin (Sigma, St. Louis, MO) serve as 100% and 0% cell viability control, respectively.

Series [5] has as its system Respiratory syncytial virus recombinant with luciferase (RSV-Luc5). Nature of the series: microbe, parasite or virus in culture. The class given is cell-based. The conditions noted are these: human respiratory syncytial virus, NHBE, 72 h, read-out: RSV NHBE EC50.

For orientation: Cmax means the highest concentration seen after dosing. One may read the EC50 as the concentration at which the effect is half-maximal. For orientation: CC50 means the concentration that lowers cell viability or growth by half. Read a low CC50 as harm at low concentration.

Consider `CC(C)C(=O)OC[C@H]1O[C@@](C#N)(c2ccc3c(N)ncnn23)[C@H](O)[C@@H]1O` [Ester Reference Compound, reference compound], for which, in series [1], the Cmax was 2100 nM and the “Reference Compound A AUCinf.” value came to 7.57 µM·h.
On to `CCCC(=O)Nc1ncnn2c([C@]3(C#N)O[C@H](COC(=O)C(C)C)[C@@H](O)[C@H]3O)ccc12` [Compound 9, ((2R,3S,4R,5R)-5-(4-butyramidopyrrolo[2,1-f][1,2,4]triazin-7-yl)-5-cyano-3,4-dihydroxytetrahydrofuran-2-yl)methyl isobutyrate], for which the results for the EC50 in series [2] and in series [3] were 529 nM and 1950 nM, respectively. The CC50 in series [4] is more than 50 µM.
Turning to `CCCCCCCC(=O)Nc1ncnn2c([C@]3(C#N)O[C@H](COC(=O)C(C)C)[C@@H](O)[C@H]3O)ccc12` [Compound 11, ((2R,3S,4R,5R)-5-cyano-3,4-dihydroxy-5-(4-octanamidopyrrolo[2,1-f][1,2,4]triazin-7-yl)tetrahydrofuran-2-yl)methyl isobutyrate], the figures for the EC50 in series [5] and in series [3] were 188 nM and 935 nM, respectively. This compound came in with a CC50 in series [4] of 42.4 µM.
For the compound `CC(C)C(=O)OC[C@H]1O[C@@](C#N)(c2ccc3c(=N)n(COP(=O)(O)OCc4ccccc4)cnn23)[C@H](O)[C@@H]1O` [Compound 5, ((2R,3S,4R,5R)-5-(3-((((benzyloxy)(hydroxy)phosphoryl)oxy)methyl)-4-imino-3,4-dihydropyrrolo[2,1-f][1,2,4]triazin-7-yl)-5-cyano-3,4-dihydroxytetrahydrofuran-2-yl)methyl isobutyrate], in series [3], the EC50 is more than 50000 nM. For the same compound, the CC50 in series [4] is more than 50 µM.
For `CCCC(=O)Nc1ncnn2c([C@]3(C#N)O[C@H](COC(C)=O)[C@@H](OC(C)=O)[C@H]3OC(C)=O)ccc12` [Compound 8, (2R,3R,4R,5R)-5-(acetoxymethyl)-2-(4-butyramidopyrrolo[2,1-f][1,2,4]triazin-7-yl)-2-cyanotetrahydrofuran-3,4-diyl diacetate], the 50% effective concentration (EC50) was 405 nM in series [5] and 3140 nM in series [3].
On the same counts, the results for `CC(=O)Nc1ncnn2c([C@]3(C#N)O[C@H](COC(C)=O)[C@@H](OC(C)=O)[C@H]3OC(C)=O)ccc12` [Compound 7, (2R,3R,4R,5R)-2-(4-acetamidopyrrolo[2,1-f][1,2,4]triazin-7-yl)-5-(acetoxymethyl)-2-cyanotetrahydrofuran-3,4-diyl diacetate] are 932 nM and 5540 nM.
Take `CC(C)C(=O)OC[C@H]1O[C@@](C#N)(c2ccc3c(=N)n(COP(=O)(O)O)cnn23)[C@H](O)[C@@H]1O` [Compound 6, ((2R,3S,4R,5R)-5-cyano-3,4-dihydroxy-5-(4-imino-3-((phosphonooxy)methyl)-3,4-dihydropyrrolo[2,1-f][1,2,4]triazin-7-yl)tetrahydrofuran-2-yl)methyl isobutyrate]: the EC50 in series [5] was 3550 nM; in series [2], 719 nM; in series [3] it was 3650 nM. Moreover, in series [4], the CC50 came out at 50 µM. Besides, in series [1], the “Reference Compound A F %” value is 54.4%. In addition, the Cmax in series [1] is 3080 nM. Also, the “Reference Compound A AUCinf.” value in series [1] was found to be 6.86 µM·h.
Regarding `CC(C)C(=O)OC[C@H]1O[C@@](C#N)(c2ccc3c(N)ncnn23)[C@@H]2OC(=O)O[C@@H]21` [Compound 3, ((3aR,4R,6R,6aR)-6-(4-aminopyrrolo[2,1-f][1,2,4]triazin-7-yl)-6-cyano-2-oxotetrahydrofuro[3,4-d][1,3]dioxol-4-yl)methyl isobutyrate], the EC50 in series [5] stood at 512 nM. The EC50 in series [2] worked out at 330 nM. In addition, in series [3], the EC50 is 1750 nM. In series [4], this compound had a CC50 of 50 µM. In series [1], the “Reference Compound A F %” value was 84.7%, the Cmax turned out to be 2280 nM and the “Reference Compound A AUCinf.” value came to 10.7 µM·h.
Turning to `CCCCCC(=O)Nc1ncnn2c([C@]3(C#N)O[C@H](COC(=O)C(C)C)[C@@H](O)[C@H]3O)ccc12` [Compound 10, ((2R,3S,4R,5R)-5-cyano-5-(4-hexanamidopyrrolo[2,1-f][1,2,4]triazin-7-yl)-3,4-dihydroxytetrahydrofuran-2-yl)methyl isobutyrate], in series [3], the EC50 was 1220 nM. The same compound showed a CC50 in series [4] of more than 50 µM.
As to `COC1O[C@H]2[C@@H](O1)[C@](C#N)(c1ccc3c(N)ncnn13)O[C@@H]2COC(=O)C(C)C` (stereo partly drawn) [Compound 4, ((3aR,4R,6R,6aR)-6-(4-aminopyrrolo[2,1-f][1,2,4]triazin-7-yl)-6-cyano-2-methoxytetrahydrofuro[3,4-d][1,3]dioxol-4-yl)methyl isobutyrate], the EC50 in series [3] is more than 50000 nM. The CC50 in series [4] is more than 5 µM.
